# From patent US20230321062A1, “COMBINATION THERAPIES” (Mirati Therapeutics, Inc., priority 2020, published 2023)
# Where two headings read alike, the source gives them in different places. Square brackets hold non-standard residues; d marks the D form. Peptide text beside a SMILES is read from it. * marks the point of attachment. Dolaproine = CO[C@@H]([C@@H]1CCCN1)[C@@H](C)C(=O)O; Dil = CC[C@H](C)[C@H](NC)[C@@H](CC(=O)O)OC; X1 = C[C@@H](N*)[C@@H](O)c1ccccc1; NMeV = CN[C@H](C(=O)O)C(C)C
# Assays:
# [1] = cited from earlier work; for steady-state concentrations reached after: 1.25 mg/kg Q3W regimen; for exposure (AUC) in mild, moderate or severe renal impairment compared to normal renal function: 1.25 mg/kg enfortumab; for elimination half-life / mean clearance (CL): after enfortumab dosing; for mean clearance (CL): patients
# Urothelial Carcinoma [2] = settings: EV-201; cited from earlier work
# Urothelial Carcinoma [3] = settings: cited from earlier work
# Nectin-4 = biological target: T1, Nectin-4 (Homo sapiens, UniProt Q96NY8); settings: cited from earlier work
# T1 construct: host or cells: cells that express Nectin-4
# T1 sequence (Q96NY8 32-510): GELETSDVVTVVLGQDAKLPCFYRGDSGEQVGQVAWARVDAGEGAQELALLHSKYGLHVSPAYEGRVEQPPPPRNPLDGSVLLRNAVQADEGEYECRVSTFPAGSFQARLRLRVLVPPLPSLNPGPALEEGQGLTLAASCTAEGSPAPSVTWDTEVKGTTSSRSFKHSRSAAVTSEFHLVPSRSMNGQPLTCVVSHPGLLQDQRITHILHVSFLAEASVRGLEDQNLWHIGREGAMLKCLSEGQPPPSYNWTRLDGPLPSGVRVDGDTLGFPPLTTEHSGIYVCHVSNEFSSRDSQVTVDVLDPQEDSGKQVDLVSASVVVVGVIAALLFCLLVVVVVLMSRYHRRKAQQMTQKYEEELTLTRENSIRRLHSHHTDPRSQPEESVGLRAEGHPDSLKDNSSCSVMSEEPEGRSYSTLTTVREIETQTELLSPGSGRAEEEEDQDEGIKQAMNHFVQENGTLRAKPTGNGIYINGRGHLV
# [4] = cited from earlier work
# Urothelial Carcinoma [5] = settings: cited from earlier work; remark: listed apart in the source
# Urothelial Carcinoma [6] = settings: cited from earlier work; remark: listed apart in the source
# hERG = hERG (Homo sapiens, UniProt Q12809); experiment: hERG assay (in vitro); type: cell-based; settings: read-out: IC50 on the potassium current
# in vivo = experiment: in vivo; set-up: species or system dogs; settings: dog
# [7] = neurological functional observation battery and respiratory evaluations; type: in vivo; settings: rats, doses up to 25 mg/kg
# Caco-2 cell lines = experiment: bidirectional permeability study with Caco-2 cell lines; type: in vitro ADME; settings: Caco-2 bidirectional
# P-glycoprotein (P-gp) = biological target: T2, P-glycoprotein (P-gp) (Homo sapiens, UniProt P08183); experiment: P-gp substrate assessment in Caco-2 bidirectional permeability study; type: in vitro ADME
# T2 construct: In a bidirectional permeability study with Caco-2 cell lines; endogenous in cells; host or cells: Caco-2
# [8] = biological target: T3, Breast Cancer Resistance Protein (BCRP) (Homo sapiens, UniProt Q9UNQ0); experiment: BCRP substrate assessment in Caco-2 bidirectional permeability study; type: in vitro ADME
# T3 construct: In a bidirectional permeability study with Caco-2 cell lines; endogenous in cells; host or cells: Caco-2
# P-gp = biological target: T4, P-gp (Homo sapiens, UniProt P08183); type: in vitro ADME
# T4 construct: In a bidirectional permeability study with Caco-2 cell lines; endogenous in cells; host or cells: Caco-2
# BCRP = biological target: T5, BCRP (Homo sapiens, UniProt Q9UNQ0); type: in vitro ADME
# T5 construct: In a bidirectional permeability study with Caco-2 cell lines; endogenous in cells; host or cells: Caco-2
# human plasma proteins = type: in vitro ADME
# cytochrome P-450 = type: in vitro ADME; settings: human
# CYP2C8 = CYP2C8 (Homo sapiens, UniProt P10632); experiment: direct CYP inhibition; type: in vitro ADME
# CYP2C9 = CYP2C9 (Homo sapiens, UniProt P11712); experiment: direct CYP inhibition; type: in vitro ADME
# CYP2C19 = CYP2C19 (Homo sapiens, UniProt P33261); experiment: direct CYP inhibition; type: in vitro ADME
# CYP2D6 = CYP2D6 (Homo sapiens, UniProt P10635); experiment: direct CYP inhibition; type: in vitro ADME
# CYP2B6 = CYP2B6 (Homo sapiens, UniProt P20813); experiment: direct CYP inhibition; type: in vitro ADME
# CYP1A2 = CYP1A2 (Homo sapiens, UniProt P05177); experiment: direct CYP inhibition; type: in vitro ADME
# CYP2A6 = CYP2A6 (Homo sapiens, UniProt P11509); experiment: direct CYP inhibition; type: in vitro ADME
# CYP2E1 = CYP2E1 (Homo sapiens, UniProt P05181); experiment: direct CYP inhibition; type: in vitro ADME
# CYP enzymes = experiment: time- or metabolism-dependent CYP inhibition; type: in vitro ADME
# PD-L1 on tumor cells = experiment: PD-L1 expression on tumor cells in vitro and in vivo; type: cell-based
# Excerpt: (§1) Receptor tyrosine kinases (RTKs) are key regulators of signaling pathways leading to cell growth, survival, and migration. These kinases are dysregulated in many cancers through overexpression, genetic alteration or co-expression with high affinity ligands. Multiple sitravatinib RTK targets are genetically altered in a variety of cancers and act as oncogenic drivers, promoting cancer development and progression.
# [9] = test system: systemic/spleen T lymphocytes and MDSCs; experiment: pilot studies in syngeneic mouse tumor models (immune cells); type: in vivo
# Excerpt: as §1
# [10] = pharmacokinetics after single dose of sitravatinib free base capsules; type: in vivo
# [11] = test system: MET, Axl, MERTK, VEGFR family, PDGFR family, KIT, FLT3, Trk family, RET, DDR2, and selected Eph family members
# [12] = test system: RET, CBL, CHR4q12, DDR and Trk; settings: cited from earlier work
# [13] = test system: human tumor xenograft models; experiment: human tumor xenograft models; settings: mice, broad spectrum of models
# target RTKs [14] = experiment: cell-based assays of phosphorylation and kinase dependent function
# target RTKs [15] = experiment: oncogenic functions: MET-dependent cell viability and migration, endothelial tube formation and angiogenesis; settings: endothelial tube formation, angiogenesis
# [16] = KEYNOTE-052, overall population
# [17] = KEYNOTE-052, patients with CPS ≥10
# CYP2B6, sequence (P20813 whole entry): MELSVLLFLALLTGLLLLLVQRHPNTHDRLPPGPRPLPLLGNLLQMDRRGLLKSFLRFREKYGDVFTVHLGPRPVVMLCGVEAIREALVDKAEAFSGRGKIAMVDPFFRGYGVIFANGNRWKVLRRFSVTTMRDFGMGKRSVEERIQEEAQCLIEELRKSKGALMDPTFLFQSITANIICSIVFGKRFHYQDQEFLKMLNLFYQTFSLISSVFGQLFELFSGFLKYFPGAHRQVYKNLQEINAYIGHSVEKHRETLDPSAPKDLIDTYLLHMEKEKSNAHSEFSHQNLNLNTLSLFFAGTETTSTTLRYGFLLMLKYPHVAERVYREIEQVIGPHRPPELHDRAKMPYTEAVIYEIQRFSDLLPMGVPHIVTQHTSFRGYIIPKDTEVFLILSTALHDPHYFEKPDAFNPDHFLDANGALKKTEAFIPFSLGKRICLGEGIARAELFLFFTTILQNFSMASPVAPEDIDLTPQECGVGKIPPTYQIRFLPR
# CYP2C8, sequence (P10632 whole entry): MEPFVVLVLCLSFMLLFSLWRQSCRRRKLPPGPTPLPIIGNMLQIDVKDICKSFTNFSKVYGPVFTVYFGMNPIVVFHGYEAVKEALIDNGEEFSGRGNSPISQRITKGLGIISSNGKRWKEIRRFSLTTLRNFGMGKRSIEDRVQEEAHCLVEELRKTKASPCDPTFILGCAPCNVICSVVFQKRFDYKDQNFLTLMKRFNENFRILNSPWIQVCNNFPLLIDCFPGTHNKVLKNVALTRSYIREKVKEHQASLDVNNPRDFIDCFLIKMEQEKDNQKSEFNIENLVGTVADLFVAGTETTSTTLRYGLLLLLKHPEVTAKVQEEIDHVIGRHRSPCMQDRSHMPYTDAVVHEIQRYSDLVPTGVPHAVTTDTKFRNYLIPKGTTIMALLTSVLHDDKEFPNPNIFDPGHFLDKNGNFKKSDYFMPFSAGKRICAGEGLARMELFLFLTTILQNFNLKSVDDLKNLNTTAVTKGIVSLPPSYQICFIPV
# CYP2A6, sequence (P11509 whole entry): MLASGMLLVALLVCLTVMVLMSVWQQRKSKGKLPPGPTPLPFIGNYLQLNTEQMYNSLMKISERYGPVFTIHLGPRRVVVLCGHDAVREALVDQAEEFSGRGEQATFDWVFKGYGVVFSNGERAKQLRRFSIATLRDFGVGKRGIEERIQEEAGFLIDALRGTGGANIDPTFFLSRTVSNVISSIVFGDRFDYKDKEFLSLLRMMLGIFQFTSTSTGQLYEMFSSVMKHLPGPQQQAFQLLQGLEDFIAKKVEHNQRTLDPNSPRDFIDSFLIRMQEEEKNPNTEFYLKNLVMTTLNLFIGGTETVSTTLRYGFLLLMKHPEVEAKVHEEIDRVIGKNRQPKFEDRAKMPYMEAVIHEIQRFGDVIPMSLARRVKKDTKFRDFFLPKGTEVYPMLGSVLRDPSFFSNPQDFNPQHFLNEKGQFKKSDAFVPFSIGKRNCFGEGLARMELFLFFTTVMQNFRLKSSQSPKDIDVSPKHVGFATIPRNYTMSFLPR
# CYP2D6, sequence (P10635 whole entry): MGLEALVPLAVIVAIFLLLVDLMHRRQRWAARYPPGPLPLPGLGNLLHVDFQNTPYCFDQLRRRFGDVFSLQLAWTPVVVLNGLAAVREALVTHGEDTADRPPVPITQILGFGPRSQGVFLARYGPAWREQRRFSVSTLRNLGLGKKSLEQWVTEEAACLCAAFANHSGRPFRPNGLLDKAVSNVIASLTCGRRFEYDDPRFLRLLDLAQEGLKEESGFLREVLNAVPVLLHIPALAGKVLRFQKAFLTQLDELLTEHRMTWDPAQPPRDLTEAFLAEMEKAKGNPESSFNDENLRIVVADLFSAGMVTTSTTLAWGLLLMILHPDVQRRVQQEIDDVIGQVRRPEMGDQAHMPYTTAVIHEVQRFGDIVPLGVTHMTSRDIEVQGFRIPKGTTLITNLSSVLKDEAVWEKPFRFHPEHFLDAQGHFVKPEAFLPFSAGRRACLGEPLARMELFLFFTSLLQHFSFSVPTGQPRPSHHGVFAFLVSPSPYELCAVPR
# CYP2E1, sequence (P05181 whole entry): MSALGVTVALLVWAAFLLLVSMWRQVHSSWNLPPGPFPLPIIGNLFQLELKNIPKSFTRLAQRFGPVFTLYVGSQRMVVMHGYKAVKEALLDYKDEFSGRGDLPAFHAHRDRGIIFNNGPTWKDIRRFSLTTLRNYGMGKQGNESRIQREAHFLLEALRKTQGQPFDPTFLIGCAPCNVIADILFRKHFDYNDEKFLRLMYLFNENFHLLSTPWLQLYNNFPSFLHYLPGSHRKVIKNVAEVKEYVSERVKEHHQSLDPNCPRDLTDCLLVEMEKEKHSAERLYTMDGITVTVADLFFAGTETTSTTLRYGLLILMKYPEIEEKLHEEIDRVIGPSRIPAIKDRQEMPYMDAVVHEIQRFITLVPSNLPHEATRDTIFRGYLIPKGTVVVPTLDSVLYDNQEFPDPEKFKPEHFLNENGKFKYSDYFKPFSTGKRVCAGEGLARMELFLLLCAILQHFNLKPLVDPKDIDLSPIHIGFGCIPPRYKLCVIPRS
# CYP2C9, sequence (P11712 whole entry): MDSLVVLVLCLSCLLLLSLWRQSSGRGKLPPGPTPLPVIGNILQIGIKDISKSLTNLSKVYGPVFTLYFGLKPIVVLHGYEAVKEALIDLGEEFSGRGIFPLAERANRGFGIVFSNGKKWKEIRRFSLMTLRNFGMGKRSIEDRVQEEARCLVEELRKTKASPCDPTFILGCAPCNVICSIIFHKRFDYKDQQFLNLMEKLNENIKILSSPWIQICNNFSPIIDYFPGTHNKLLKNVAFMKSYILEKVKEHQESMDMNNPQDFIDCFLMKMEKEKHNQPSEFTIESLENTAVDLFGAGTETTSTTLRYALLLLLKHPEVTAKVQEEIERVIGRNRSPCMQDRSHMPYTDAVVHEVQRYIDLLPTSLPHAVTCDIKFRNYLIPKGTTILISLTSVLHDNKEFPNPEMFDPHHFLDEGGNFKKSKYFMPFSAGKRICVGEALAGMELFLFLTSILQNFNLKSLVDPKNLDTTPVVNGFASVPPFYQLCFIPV
# T2 sequence (P08183 whole entry): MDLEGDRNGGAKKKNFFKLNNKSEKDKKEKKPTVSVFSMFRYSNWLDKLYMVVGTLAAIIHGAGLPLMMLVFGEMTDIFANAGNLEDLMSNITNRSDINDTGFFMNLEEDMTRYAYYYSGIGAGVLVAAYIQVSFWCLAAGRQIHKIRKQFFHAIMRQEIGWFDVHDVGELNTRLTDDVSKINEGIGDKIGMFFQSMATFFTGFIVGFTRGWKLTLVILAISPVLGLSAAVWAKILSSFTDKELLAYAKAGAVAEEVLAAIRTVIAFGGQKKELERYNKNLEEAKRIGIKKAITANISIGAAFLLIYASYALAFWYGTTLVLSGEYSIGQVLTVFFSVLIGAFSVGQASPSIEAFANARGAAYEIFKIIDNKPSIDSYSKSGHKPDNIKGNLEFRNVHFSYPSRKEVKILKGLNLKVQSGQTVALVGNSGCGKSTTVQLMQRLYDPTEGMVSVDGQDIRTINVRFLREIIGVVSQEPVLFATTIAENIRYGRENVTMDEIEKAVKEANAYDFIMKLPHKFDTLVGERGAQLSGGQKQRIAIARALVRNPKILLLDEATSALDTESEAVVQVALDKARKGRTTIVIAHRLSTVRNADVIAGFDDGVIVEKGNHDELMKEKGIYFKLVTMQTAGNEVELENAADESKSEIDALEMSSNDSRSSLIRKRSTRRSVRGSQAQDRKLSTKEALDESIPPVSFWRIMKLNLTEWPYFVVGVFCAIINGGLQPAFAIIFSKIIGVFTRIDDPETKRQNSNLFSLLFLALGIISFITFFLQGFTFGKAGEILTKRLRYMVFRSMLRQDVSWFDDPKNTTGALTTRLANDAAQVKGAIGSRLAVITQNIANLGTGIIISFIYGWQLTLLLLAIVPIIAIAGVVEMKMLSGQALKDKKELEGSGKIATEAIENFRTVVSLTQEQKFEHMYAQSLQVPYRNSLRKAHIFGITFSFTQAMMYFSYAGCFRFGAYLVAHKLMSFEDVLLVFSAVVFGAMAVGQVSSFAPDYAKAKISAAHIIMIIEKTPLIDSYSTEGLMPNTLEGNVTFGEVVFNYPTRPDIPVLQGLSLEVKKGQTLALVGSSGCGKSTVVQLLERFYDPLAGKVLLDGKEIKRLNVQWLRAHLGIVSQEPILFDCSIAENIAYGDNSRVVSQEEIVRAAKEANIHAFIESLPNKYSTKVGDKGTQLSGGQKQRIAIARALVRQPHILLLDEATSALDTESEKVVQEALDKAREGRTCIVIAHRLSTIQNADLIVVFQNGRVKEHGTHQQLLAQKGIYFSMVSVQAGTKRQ
# T3 sequence (Q9UNQ0 whole entry): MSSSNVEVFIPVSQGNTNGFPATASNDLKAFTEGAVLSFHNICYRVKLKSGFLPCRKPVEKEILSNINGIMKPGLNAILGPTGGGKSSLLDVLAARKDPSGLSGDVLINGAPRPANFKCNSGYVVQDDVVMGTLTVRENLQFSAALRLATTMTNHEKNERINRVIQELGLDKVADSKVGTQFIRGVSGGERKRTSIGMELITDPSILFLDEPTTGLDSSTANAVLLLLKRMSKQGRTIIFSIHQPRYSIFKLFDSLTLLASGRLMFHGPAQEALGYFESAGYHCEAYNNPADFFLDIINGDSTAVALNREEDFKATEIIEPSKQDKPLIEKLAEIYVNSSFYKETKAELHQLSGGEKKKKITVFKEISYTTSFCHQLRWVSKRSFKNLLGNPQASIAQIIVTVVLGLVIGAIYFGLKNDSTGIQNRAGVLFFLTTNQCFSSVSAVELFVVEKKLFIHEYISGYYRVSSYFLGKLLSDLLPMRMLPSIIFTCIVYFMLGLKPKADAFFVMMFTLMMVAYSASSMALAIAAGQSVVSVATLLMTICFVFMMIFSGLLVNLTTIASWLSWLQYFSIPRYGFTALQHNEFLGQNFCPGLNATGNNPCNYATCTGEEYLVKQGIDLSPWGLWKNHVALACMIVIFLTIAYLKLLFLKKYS
# T5 sequence (Q9UNQ0 whole entry): as above
compound,measurement,setting,value
enfortumab: Nectin-4 directed ADC: fully human anti-Nectin-4 IgG1 kappa antibody (AGS-22C3) conjugated to MMAE via protease-cleavable maleimidocaproyl valine-citrulline linker,steady-state concentrations reached after,[1],1 treatment cycle
same,"exposure (AUC) in mild, moderate or severe renal impairment compared to normal renal function",[1],No significant differences
same,dose proportionality of PK,"[1]; 0.5 to 1.25 mg/kg, days 1, 8, 15 of 28-day cycle",linear dose-proportional PK
same,elimination half-life,[1],81.6 h
same,estimated mean volume of distribution at steady state (Vss),[1]; following administration of enfortumab,11 L
same,accumulation following repeat administration of enfortumab,[1]; in vivo,minimal accumulation
same,time of peak concentrations,[1]; intravenous infusion,end of infusion
same,mean clearance (CL),[1],0.10 L/h
same,"differences in pharmacokinetics based on age, sex, or race/ethnicity",[1]; population PK,no clinically significant differences
same,complete response rate,Urothelial Carcinoma [2],12%
same,median DOR,Urothelial Carcinoma [2],7.6 months
same,median overall survival,Urothelial Carcinoma [2],11.7 months
same,overall ORR as confirmed by central review,Urothelial Carcinoma [2],44%
same,overall ORR as confirmed by central review,Urothelial Carcinoma [3]; EV-103 (pembrolizumab and enfortumab used in combination),73%
same,median DOR,"Urothelial Carcinoma [3]; EV-103, median follow-up 10.4 months",not reached
same,12-month overall survival rate,Urothelial Carcinoma [3]; EV-103,82%
same,complete response rate,Urothelial Carcinoma [3]; EV-103,16%
same,median overall survival,Urothelial Carcinoma [3]; EV-103,not reached
same,affinity of binding to cells that express Nectin-4,Nectin-4,high affinity
"CC[C@H](C)[C@@H]([C@@H](CC(=O)N1CCC[C@H]1[C@H](OC)[C@@H](C)C(=O)N[C@H](C)[C@@H](O)c1ccccc1)OC)N(C)C(=O)[C@@H](NC(=O)[C@@H](NC)C(C)C)C(C)C [MMAE, monomethyl auristatin E] (H-[NMeV]V[Dil][Dolaproine]-X1)",steady-state concentrations reached after,[1],1 treatment cycle
same,"exposure (AUC) in mild, moderate or severe renal impairment compared to normal renal function",[1],No significant differences
same,elimination half-life,[1],57.6 h
same,accumulation following repeat administration of enfortumab,[1]; in vivo,minimal accumulation
same,time until which plasma concentrations increased after enfortumab dosing,[1]; in vivo,~2 days
same,mean clearance (CL),[1],2.7 L/h
same,AUC increase in patients with mild hepatic impairment compared to normal hepatic function,"[1]; population PK, n=31",48%
"pembrolizumab: humanized monoclonal IgG4 kappa antibody that blocks the interaction between PD-1 and its ligands, PD-L1 and PD-L2",steady-state exposure versus dose,[4]; 2 to 10 mg/kg Q3W,increased dose proportionally
same,systemic accumulation,[4]; Q3W regimen,approximately 2.1 fold
same,geometric mean clearance (CL),"[4]; population PK, 2993 patients with various cancers",195 mL/day
same,geometric mean volume of distribution at steady state (Vss),[4]; population PK,6.0 L
same,OS versus chemotherapy in subgroups,"Urothelial Carcinoma [5]; KEYNOTE-045, all subgroups examined",OS benefit over chemotherapy
same,ORR as confirmed by central review,"Urothelial Carcinoma [5]; KEYNOTE-045, patients with CPS≥10",20%
same,overall ORR as confirmed by central review,"Urothelial Carcinoma [5]; KEYNOTE-045, pembrolizumab group",21%
same,median DOR,Urothelial Carcinoma [5]; KEYNOTE-045,not reached
same,median overall survival,Urothelial Carcinoma [5]; KEYNOTE-045,10.1 months
same,median DOR,Urothelial Carcinoma [6]; [16],30.1 months
same,overall ORR as confirmed by central review,Urothelial Carcinoma [6]; [16],29%
same,median overall survival,"Urothelial Carcinoma [6]; KEYNOTE-052, overall",11.3 months
same,ORR as confirmed by central review,Urothelial Carcinoma [6]; [17],47%
same,median DOR,Urothelial Carcinoma [6]; [17],not reached
same,median overall survival,Urothelial Carcinoma [6]; [17],18.5 months
"COCCNCc1ccc(-c2cc3nccc(Oc4ccc(NC(=O)C5(C(=O)Nc6ccc(F)cc6)CC5)cc4F)c3s2)nc1 [sitravatinib, N-(3-Fluoro-4-(2-(5-((2-methoxyethylamino)methyl)pyridin-2-yl)thieno[3,2-b]pyridin-7-yloxy)phenyl)-N-(4-fluorophenyl)cyclopropane-1,1-dicarboxamide]",IC50,hERG,600 nM
same,vascular pressures,in vivo,Minor increases
same,concentration at 6 hr,in vivo; 4 mg/kg,72 ng/mL
same,"neurological functional observation battery and respiratory evaluations (tidal volume, respiration rate, minute volume)",[7],did not reveal any sitravatinib related effects
same,permeability classification,Caco-2 cell lines,highly permeable
same,substrate of P-gp,P-glycoprotein (P-gp),not a substrate
same,substrate of BCRP,[8],not a substrate
same,IC50,P-gp,838 nM
same,IC50,BCRP,1510 nM
same,bound to human plasma proteins,human plasma proteins,98.6%
same,CYP enzymes involved in metabolism,cytochrome P-450,"multiple enzymes, including CYP 1A2, 2A6, 2B6, 2C8, 2C9, 2D6, 2E1, and 3A4 are involved"
same,IC50,CYP2C8,2900 nM
same,IC50,CYP2C9,11000 nM
same,IC50,CYP2C19,10000 nM
same,IC50,CYP2D6,1900 nM
same,IC50,CYP2B6,> 20000 nM
same,inhibition at 20 µM,"CYP2B6; human, highest concentration evaluated (20 μM)",~50%
same,direct inhibition of CYP1A2,CYP1A2,little or no evidence
same,direct inhibition of CYP2A6,CYP2A6,little or no evidence
same,direct inhibition of CYP2E1,CYP2E1,little or no evidence
same,time- or metabolism-dependent inhibition of any of the CYP enzymes evaluated,CYP enzymes,little or no evidence
same,expression of PD-L1 on tumor cells,PD-L1 on tumor cells,increase expression of PD-L1
same,systemic MDSCs,[9],reduces the number
same,systemic/spleen CD4+ and CD8+ T lymphocytes,[9],increases the proliferation and fraction
same,dose proportionality of Cmax and AUC,[10]; doses up to 200 mg,dose proportional
same,half-life,"[10]; human, in vivo, oral administration, read-out: mean elimination half life",42 to 58 h
same,inhibition of kinase activity,[11]; biochemical assays,"potent, concentration-dependent inhibition"
same,potency against intended clinical targets,[11]; generally,less than 0.1 μM
same,inhibition of a closely related spectrum of tyrosine kinases,[12],potent inhibition
same,anti-tumor activity in human xenograft tumor models,[13],anti tumor efficacy
same,anti-tumor activity in human xenograft tumor models,[13]; listed as Sitravatinib,tumor regression
same,phosphorylation and kinase dependent function,target RTKs [14],inhibited phosphorylation and kinase dependent function
same,oncogenic functions associated with target RTKs,target RTKs [15],inhibited oncogenic functions
